Laboratory results: patent publication US20150072968A1, “Treating Infections with Ceftolozane/Tazobactam in Subjects Having Impaired Renal Function” (Calixa Therapeutics, Inc., priority 2013, published 2015)
Values belong to the compound of their own block, whether it stands above or below them.

What was measured:
[1] = tested on: complicated urinary tract infections (including pyelonephritis); assay: Phase 3 study of complicated urinary tract infections, composite microbiological and clinical cure at TOC visit; format: in vivo, human; conditions: for Composite Cure Rate at TOC: levofloxacin-resistant population
Source text: (§1) The primary efficacy endpoint was the composite microbiological and clinical cure response at the test-of-cure (TOC) visit in the microbiologically modified intent-to-treat (mMITT) population, which included all patients who received study medication and had at least 1 baseline uropathogen. The key secondary efficacy endpoint was the composite microbiological and clinical cure response at the TOC visit in the microbiologically evaluable (ME) population, which included protocol-adherent mMITT patients with a urine culture at the TOC visit.

P. aeruginosa = assay: Baseline susceptibility testing of cUTI isolates, CLSI broth microdilution; format: cell-based, Pseudomonas aeruginosa; conditions: comparators
Description: (§2) 764 isolates of Gram-negative aerobic organisms were isolated from 800 patients in the microbiological modified intent-to-treat population (enrolled in 20 countries in Eastern Europe, North America, South America and 5 countries outside of these regions). Susceptibility (S) testing was performed with ceftolozane/tazobactam at a fixed 4 μg/mL of tazobactam and 10 antibiotic comparators using CLSI broth microdilution methods. ESBL enzymes were identified by PCR.

E. coli = assay: as above; format: cell-based, Escherichia coli
Description: as §2

gram-negative pathogens = assay: as above; format: cell-based; conditions: mMITT population; ceftolozane/tazobactam breakpoint ≦8 mg/1, levofloxacin CLSI criteria
Description: as §2

[2] = human, in vivo, 7 days
Escherichia coli [3] = assay: Phase 3 cUTI study, per pathogen microbiological eradication; format: in vivo; conditions: levofloxacin-resistant population, ME
Source text: as §1

Enterobacteriaceae = assay: as above; format: in vivo; conditions: levofloxacin-resistant population, ME
Source text: as §1

Pseudomonas aeruginosa [4] = assay: as above; format: in vivo; conditions: levofloxacin-resistant population, ME
Source text: as §1

Klebsiella pneumoniae [5] = assay: as above; format: in vivo; conditions: levofloxacin-resistant population, ME
Source text: as §1

[6] = Phase 1 single dose PK of 750 mg ceftolozane/tazobactam in severe renal impairment and ESRD on hemodialysis (Example 8); format: in vivo, human
Description: This was a Phase 1, multicenter, prospective, open-label study of 750 mg ceftolozane/tazobactam (as CXA-201) administered IV in male and female adult subjects with severe renal impairment (estimated CLCR<30 mL/min) and subjects with end-stage renal disease (ESRD) on hemodialysis (HD). The primary objective of the study was to determine the PK profile of ceftolozane/tazobactam in subjects with severe renal impairment and subjects with ESRD on HD and to determine the effect of HD on the clearance of ceftolozane/tazobactam.
Subjects with severe renal impairment received a single IV 1-hour infusion of 750 mg ceftolozane/tazobactam on Day 1. […] Subjects in this cohort received an IV dose of 750 mg ceftolozane/tazobactam as a 1 hour infusion immediately after their first HD session on Day 1 (postdialysis, approximately 72 hours prior to the next HD session) and a second dose of ceftolozane/tazobactam approximately 2 hours before their second HD session on Day 4 of the study. Infusion of ceftolozane/tazobactam was completed approximately 1 hour before the start of HD.
Subjects in both cohorts had urine (if not anuric) and plasma samples collected for determination of levels of ceftolozane, tazobactam and the M1 metabolite of tazobactam; subjects in the ESRD on HD cohort also had dialysate fluid samples collected for PK assessment. Plasma, urine, and dialysate levels of ceftolozane, tazobactam, and its metabolite M1 collected over a prespecified interval were determined by LC/MS/MS assay.
All subjects underwent hemodialysis for 3 to 4 hours using a high-flux membrane (either 1.4, 1.8, or 1.9 m^2) on Days 1, 4, and 6 as scheduled. Average blood flow rate was 264 to 600 mL/min and average dialysis flow rate was either 600 or 800 mL/min for all subjects with ESRD.

Streptococcus salivarius = assay: Phase 3 cIAI study, per pathogen clinical cure; format: in vivo; conditions: ME population
Description: (§3) A total of 979 adults hospitalized with complicated intra-abdominal infections were randomized and received study medications in a multinational, double-blind study comparing CXA-201 (1.5 g IV every 8 hours) plus metronidazole (500 mg IV every 8 hours) to meropenem (1 g IV every 8 hours) for 4 to 14 days of therapy. Complicated intra-abdominal infections included appendicitis, cholecystitis, diverticulitis, gastric/duodenal perforation, perforation of the intestine, and other causes of intra-abdominal abscesses and peritonitis. The primary efficacy endpoint was clinical response at the test-of-cure (TOC) visit in the microbiological intent-to-treat (MITT) population, which included all patients who had at least 1 baseline intra-abdominal pathogen. The key secondary efficacy endpoint was clinical response at the TOC visit in the microbiologically evaluable (ME) population, which included all protocol-adherent MITT patients.

Escherichia coli [7] = assay: Phase 3 cIAI study, per pathogen clinical cure; format: in vivo; conditions: ME population
Description: as §3

Streptococcus anginosus = assay: Phase 3 cIAI study, per pathogen clinical cure; format: in vivo; conditions: ME population
Description: as §3

[8] = tested on: Bacteroides thetaiotaomicron; assay: Phase 3 cIAI study, per pathogen clinical cure; format: in vivo; conditions: ME population
Description: as §3

[9] = tested on: Streptococcus constellatus; assay: Phase 3 cIAI study, per pathogen clinical cure; format: in vivo; conditions: ME population
Description: as §3

Klebsiella oxytoca = assay: Phase 3 cIAI study, per pathogen clinical cure; format: in vivo; conditions: ME population
Description: as §3

Aerobic Gram-positive = assay: Phase 3 cIAI study, per pathogen clinical cure; format: in vivo; conditions: ME population
Description: as §3

Pseudomonas aeruginosa [10] = assay: Phase 3 cIAI study, per pathogen clinical cure; format: in vivo; conditions: ME population
Description: as §3

Aerobic Gram-negative = assay: Phase 3 cIAI study, per pathogen clinical cure; format: in vivo; conditions: ME population
Description: as §3

Klebsiella pneumoniae [11] = assay: Phase 3 cIAI study, per pathogen clinical cure; format: in vivo; conditions: ME population
Description: as §3

Bacteroides fragilis = assay: Phase 3 cIAI study, per pathogen clinical cure; format: in vivo; conditions: ME population
Description: as §3

Enterobacter cloacae = assay: Phase 3 cIAI study, per pathogen clinical cure; format: in vivo; conditions: ME population
Description: as §3

Bacteroides ovatus = assay: Phase 3 cIAI study, per pathogen clinical cure; format: in vivo; conditions: ME population
Description: as §3

Anaerobic Gram-negative = assay: Phase 3 cIAI study, per pathogen clinical cure; format: in vivo; conditions: ME population
Description: as §3

Proteus mirabilis = assay: Phase 3 cIAI study, per pathogen clinical cure; format: in vivo; conditions: ME population
Description: as §3

Bacteroides vulgatus = assay: Phase 3 cIAI study, per pathogen clinical cure; format: in vivo; conditions: ME population
Description: as §3

[12] = tested on: complicated intra-abdominal infections; assay: Phase 3 study of complicated intra-abdominal infections, clinical response at TOC visit; format: in vivo, human
Description: as §3

[13] = tested on: Klebsiella pneumoniae (KPN); assay: Baseline susceptibility testing of cUTI isolates, CLSI broth microdilution; format: cell-based
Description: as §2

[14] = ESRD on HD, second IV infusion of 750 mg on Day 4 (during HD)
[15] = ESRD on HD, second infusion Day 4, start of infusion to end of dialysis
[16] = severe renal impairment, single IV 1-hour infusion of 750 mg ceftolozane/tazobactam

SMILES: C[C@H]1COc2c(N3CCN(C)CC3)c(F)cc3c(=O)c(C(=O)O)cn1c23 [Levofloxacin]
Composite microbiological and clinical cure rate at TOC visit ([1]; ME population): 266/353 (75.4) %
Composite Cure Rate at TOC ([1]; ME): 43.4%
Composite Cure Rate at TOC ([1]; mMITT): 39.3%
Composite microbiological and clinical cure rate at TOC visit ([1]; mMITT population): 275/402 (68.4) %
susceptibility of isolates (P. aeruginosa): 35.0%
MIC50 (E. coli; E. coli baseline isolates): 0.03 mg/1
MIC90 (E. coli; E. coli baseline isolates): > 4 mg/1
E. coli isolates susceptible (E. coli; mMITT population, regardless of ESBL phenotype): 74.1%
gram-negative pathogens isolated at baseline susceptible (gram-negative pathogens): 70.7%
adverse event gastrointestinal symptoms [2]: 11.4%
adverse event headache [2]: 4.9%
incidence of treatment-limiting adverse events [2]: < 2%
patients with adverse events [2]: 34.4%
Per-pathogen Microbiological Eradication Rate at TOC (Escherichia coli [3]): 44.1%
Per-pathogen Microbiological Eradication Rate at TOC (Enterobacteriaceae): 45.2%
Per-pathogen Microbiological Eradication Rate at TOC (Pseudomonas aeruginosa [4]): 37.5 (3/8) %
Per-pathogen Microbiological Eradication Rate at TOC (Klebsiella pneumoniae [5]): 30.0 (3/10) %

Cmax, Mean (CV %) ([6]; ESRD on HD, Day 1 IV infusion of 750 mg (non-hemodialysis phase)): 10.0 (40) μg/mL
AUClast, Mean (CV %) ([6]; ESRD on HD, Day 1 IV infusion of 750 mg (non-hemodialysis phase), through 48 hours): 367 (42) μg·h/mL
Cmax, Mean (CV %) [6, 14]: 10.8 (46) μg/mL
tmax, Median (minimum, maximum) [6, 14]: 1.5 (0.5, 24.0) h
AUClast, Mean (CV %) ([6]; ESRD on HD, second IV infusion of 750 mg on Day 4 (during HD), through 44 hours): 176 (40) μg·h/mL
AUClast, Mean (CV %) ([6]; ESRD on HD, second infusion Day 4, approximately 6 hours from start of infusion to end of dialysis): 23.8 (44) μg·h/mL
Cmax, Mean (CV %) [6, 15]: 10.6 (49) μg/mL
t1/2, Mean (CV %) [6, 15]: 1.54 (48) h
tmax, Median (minimum, maximum) [6, 15]: 1.5 (0.5, 1.5) h
AUC∞, Mean (CV %) [6, 16]: 60.3 (30) μg·h/mL
t1/2, Mean (CV %) [6, 16]: 12.0 (29) h
Cmax, Mean (CV %) ([6]; severe renal impairment, single IV 1-hour infusion of 750 mg ceftolozane/tazobactam, plasma): 2.2 (20) μg/mL
AUClast, Mean (CV %) ([6]; severe renal impairment, single IV 1-hour infusion of 750 mg ceftolozane/tazobactam, plasma, through 48 hours): 53.7 (25) μg·h/mL
Exposure (AUC48h) After HD (Day 1), Median (Range) ([6]; subjects with ESRD): 389 (99.8 − 538) μg·h/mL
Exposure (AUC48h) During HD (Day 3), Median (Range) ([6]; subjects with ESRD): 182 (78 − 255) μg·h/mL
removed by dialysis ([6]; subjects with ESRD on HD): ~51%
AUC48h Ratio (Day 3:1), Median (Range) ([6]; subjects with ESRD, during HD vs after HD): 0.49 (0.38 − 0.78)
Percent Removed, Median (Range) ([6]; subjects with ESRD, hemodialysis): 51 (22 − 63) Percent
SMILES: C[C@](Cn1ccnn1)([C@@H](N)C(=O)O)S(=O)O [M1 Metabolite]

SMILES: C[C@@H](O)[C@H]1C(=O)N2C(C(=O)O)=C(S[C@@H]3CN[C@H](C(=O)N(C)C)C3)[C@H](C)[C@H]12 [Meropenem]
Per pathogen clinical cure rate (Streptococcus salivarius): 8/8 (100) %
Per pathogen clinical cure rate (Escherichia coli [7]; Escherichia coli): 216/231 (93.5) %
Per pathogen clinical cure rate (Escherichia coli [7]; Escherichia coli (CTX-M-14/15 ESBL-producing)): 7/9 (77.8) %
Per pathogen clinical cure rate (Escherichia coli [7]; Escherichia coli (EBSL-producing)): 18/20 (90.0) %
Per pathogen clinical cure rate (Streptococcus anginosus): 23/23 (100) %
Per pathogen clinical cure rate [8]: 40/43 (93.0) %
Per pathogen clinical cure rate [9]: 20/23 (87.0) %
Per pathogen clinical cure rate (Klebsiella oxytoca): 21/22 (95.5) %
Per pathogen clinical cure rate (Aerobic Gram-positive): 170/185 (91.9) %
Per pathogen clinical cure rate (Pseudomonas aeruginosa [10]): 27/29 (93.1) %
Per pathogen clinical cure rate (Aerobic Gram-negative): 273/291 (93.8) %
Per pathogen clinical cure rate (Klebsiella pneumoniae [11]; Klebsiella pneumonia): 22/25 (88.0) %
Per pathogen clinical cure rate (Klebsiella pneumoniae [11]; Klebsiella pneumoniae (CTX-M-15 ESBL-producing)): 7/9 (77.8) %
Per pathogen clinical cure rate (Klebsiella pneumoniae [11]; Klebsiella pneumoniae (ESBL-producing)): 3/4 (75.0) %
Per pathogen clinical cure rate (Bacteroides fragilis): 56/57 (98.2) %
Per pathogen clinical cure rate (Enterobacter cloacae): 22/22 (100) %
Per pathogen clinical cure rate (Bacteroides ovatus): 42/42 (100) %
Per pathogen clinical cure rate (Anaerobic Gram-negative): 132/137 (96.4) %
Per pathogen clinical cure rate (Proteus mirabilis): 9/10 (90.0) %
Per pathogen clinical cure rate (Bacteroides vulgatus): 21/22 (95.5) %
Clinical cure rate at TOC visit ([12]; ME population): 304/321 (94.7) %
Clinical cure rate at TOC visit ([12]; MITT population): 364/417 (87.3) %

SMILES: NCC[C@H](O)C(=O)N[C@@H]1C[C@H](N)[C@@H](O[C@H]2O[C@H](CN)[C@@H](O)[C@H](O)[C@H]2O)[C@H](O)[C@H]1O[C@H]1O[C@H](CO)[C@@H](O)[C@H](N)[C@H]1O [amikacin]
susceptibility of isolates (P. aeruginosa): 55.0%

SMILES: CO/N=C(\C(=O)N[C@@H]1C(=O)N2C(C(=O)[O-])=C(C[N+]3(C)CCCC3)CS[C@H]12)c1csc(N)n1 [cefepime]
susceptibility of isolates (P. aeruginosa): 50.0%

SMILES: CC(C)(O/N=C(\C(=O)N[C@@H]1C(=O)N2C(C(=O)[O-])=C(C[n+]3ccccc3)CS[C@H]12)c1csc(N)n1)C(=O)O [ceftazidime]
susceptibility of isolates (P. aeruginosa): 40.0%
isolates inhibited at ≦8 μg/mL [13]: 58.2%

SMILES: C[C@@H](O)[C@H]1C(=O)N2C(C(=O)O)=C(SCCN=CN)C[C@H]12 [imipenem]
susceptibility of isolates (P. aeruginosa): 45.0%
